System: chronic pain
Assay: Subjective pain reduction in a person with chronic pain (case report, scale of 0-100% reduction)
Format: in vivo, human
Protocol: The tasks included many different routine physical tasks, but particularly included typing and use of a computer mouse. […] DHEA (50 mg/day) was also taken alone orally for three weeks. […] The degree was subjective based on a scale of 0-100% reduction, where 0% was no pain reduction and 100% was total pain elimination.
In addition to treatment with DHEA alone, the person of Example 1, was also treated with Nortriptyline alone and with a combination of 75 mg per day DHEA and 10 mg per day Nortriptyline.

Which results are given for `C[C@]12CC[C@H](O)CC1=CC[C@@H]1[C@@H]2CC[C@]2(C)C(=O)CC[C@@H]12` [DHEA, dehydroepiandrosterone]?
reduction in pain (50 mg/day alone orally for three weeks, by the end of the second week, subjective scale 0-100%): approximately 25%; pain remaining, of the original pain (doses of 75 mg and I 00 mg for three weeks each, after 50 mg/day): less than 50%

Which results are given for `CNCCC=C1c2ccccc2CCc2ccccc21` [Nortriptyline]?
reduction in pain (alone, 10 mg per day): about 20%; reduction in pain compared with 10 mg per day (alone, 25 and 50 mg doses): to greater extent

How did the reduction in pain (400 mg/day alone, subjective scale, 0% no pain reduction, 100% total pain elimination) turn out when `Cc1ccc(-c2cc(C(F)(F)F)nn2-c2ccc(S(N)(=O)=O)cc2)cc1` [celecoxib] was run?
The reduction in pain was “approximately 25%”.

For `NCC1(CC(=O)O)CCCCC1` [gabapeatin, gabapentin], which pain relief (treatment with the drug alone, person with 5 year history of chronic pain) is on record?
The pain relief was “did not result in pain relief”.

Source: patent publication US20060178354A1, “Methods and compositions for the treatment of chronic pain using dhea and derivatives thereof” (priority 2003, published 2006)
